In one data set the test system is P. falciparum strain 3D7. In words: Antimalarial activity, P. falciparum lactate dehydrogenase growth inhibition assay. Type of data set: cell-based, Plasmodium falciparum. The following applies: for fold decrease in antimalarial activity with respect to the reference compounds BR-23 / BR-25: Fg-9, Fa-21, Fg-14 vs BR-23, Ff-1, Ff-7, Ff-3 vs BR-25; for IC50: P. falciparum 3D7 in human erythrocytes, 72 h, LDH readout, read-out: IC50 a (In vitro IC50 values against P. falciparum); for fold decrease of antimalarial activity with respect to RSM932A: relative to RSM932A; for fold decrease in parasite lethality with respect to BR-31: relative to homologous BR-31. As for the experimental part:
Parasites of the P. falciparum strain 3D7 were grown in fresh group 0 positive human erythrocytes, obtained from the Centro Regional de Transfusion Sanguínea-SAS (Granada, Spain) and suspended at 5% haematocrit in RPMI 1640 containing 2% human serum, 0.2% NaHCO3, 0.5% Albumax II, 150 μM hypoxanthine, and […] gentamicin. Flasks were incubated at 37 °C, under 5% CO2 and 95% air mixture. […] The stock culture was then diluted with complete medium and non-parasitized erythrocytes to yield a haematocrit of 2% and parasitemia of 0.25%. Stock solutions of the test drugs were prepared at an initial concentration of 200 mM in DMSO, serially diluted and dispensed into triplicate in 96-well plates to yield final concentrations ranging from 0.0039 to 2 μM. The final well volume was 200 μL with a final concentration of DMSO 0.001%. Each plate also included positive growth controls, where only medium were added, and negative growth controls with 100 nM of chloroquine. […] A multidrop dispenser was used to add 50 μL of synchronized parasite culture per well. After 72 h of growth in presence of test compounds, the plates were stored frozen at −20 °C for at least 24 h. Next, they were thawed at room temperature. Parasite growth inhibition assays and IC50 determinations were carried out following the P. falciparum lactate dehydrogenase assay where parasite viability is quantified by measuring LDH activity upon APAD+ addition, a cofactor that is specific to the Plasmodium enzyme. To evaluate LDH activity, 140 μL of freshly made reaction mix, containing 143 mM sodium L-lactate, 143 μM APAD, 178.75 μM NBT, 1 U/mL diaphorase, 0.7% Tween 20 and 100 mM Tris-HCl (pH 8.0) were dispensed into plates. After 10 min of incubation in the dark at room temperature, absorbance was measured at 630 nm with a vmax precision multiwell plate reader from Molecular Devices, by using the accompanying SOFT maxPro software for analysis.

In a further data set the target is T1, PfCK (Plasmodium falciparum, UniProt Q8IM71).
T1 construct: A truncated form of PfCK (Δ79-440) featuring an N-terminal 6× His-tag; 6xHis (N); host or cells: Escherichia coli BL21 (DE3) Star
In words: Spectrophotometric coupled enzymatic assay for PfCK activity (substrate choline). Type of data set: biochemical. The conditions noted are these: for IC50: IC50 PfCK b (compound concentration required to inhibit PfCK enzyme by 50%), substrate choline 4 mM, ATP 2 mM. As for the experimental part: A truncated form of PfCK (Δ79-440) featuring an N-terminal 6× His-tag was purchased from Genescript (Piscataway, NJ, USA), cloned into a pET-28a vector and transformed into Escherichia coli BL21 (DE3) Star cells (Invitrogen, Carlsbad, CA, USA). The transformed bacteria were cultured in Luria-Bertani (LB) medium at 37 °C until OD600 = 0.6 and the expression was induced with 1 mM isopropyl β-D-1-thiogalactopyranoside (IPTG). The cell culture was grown overnight at 20 °C and 180 rpm. Cells were pelleted by centrifugation at 10,000 rpm, resuspended in 50 mM Tris/HCl pH 7.5, 500 mM NaCl, 0.2 mM phenylmethylsulphonyl fluoride (PMSF, Sigma Aldrich, St. Luis, MO, USA), DNase (Sigma Aldrich, St. Luis, MO, USA), 0.5 mM β-mercaptoethanol (Sigma Aldrich, St. Luis, MO, USA) and sonicated. Separation of the soluble from the insoluble fraction was obtained by centrifugation at 15,000 rpm and 4 °C. The target enzyme was purified by a two-step purification protocol. In the first step, the cell lysate was incubated for 45 min with Ni-NTA resin (Qiagen, Venlo, The Netherlands) in a gravity column. Then, the column was washed with 40 column volumes (CV) of 50 mM Tris/HCl pH 7.5, 300 mM NaCl, 10 mM imidazole and 1 CV of 50 mM Tris/HCl pH 7.5, 300 mM NaCl, 40 mM imidazole. Finally, the His-tagged enzyme was eluted from the column using a 50 mM Tris/HCl pH 7.5, 300 mM NaCl, 400 mM imidazole buffer. A subsequent size-exclusion chromatography step was implemented to further polish the sample using a HiPrep 26/60 Sephacryl 100 HR column (GE Healthcare, Little Chalfont, Buckinghamshire, UK) previously equilibrated with 20 mM Tris/HCl pH 7.5, 150 mM NaCl buffer. This second purification step afforded a pure protein sample. The protein production yield was estimated to be nearly 2.5 mg of recombinant enzyme per liter of bacterial culture.
A spectrophotometric 96-well plate assay for PfCK activity was established based on an assay previously described. The reaction mix was composed as follows: 100 mM Tris/HCl pH 7.5, 100 mM KCl, 10 mM MgCl2, 0.5 mM phosphoenolpyruvate, 0.25 mM NADH, 4 U of pyruvate kinase, 5 U lactate dehydrogenase, 2 mM ATP, 4 mM choline chloride and different concentrations of the selected compounds. All the necessary compounds for the assay were purchased from Sigma Aldrich (St. Luis, MO, USA) and the final assay volume was 200 μL. The enzymatic reaction was initiated by the addition of the enzyme at less than 10 nM concentration and the reaction rates were measured by monitoring the decrease in the absorbance at 340 nm for 20 min at room temperature using a Spark10M instrument (Tecan). Finally, the IC50 values for each compound were determined by plotting the enzyme fractional activity (f.a.) against the logarithm of compound concentration (log[I]). Curve-fitting was performed with a dose-response curve from Origin (OriginLab Corporation, Northampton, MA, USA), using the following equation: f.a.=1/1+10^logIC50−logI
All data points were collected in triplicate and the final dose-response curves were plotted with MATLAB (R2018a (9.4.0.813654), 2018, MathWorks, Natick, MA, USA). See curves in Figure S1 in Supplementary Materials.

Setting [1] is: Plasmodium falciparum, Erythrocyte.
Setting [2] is: read-out: PfCK Fractional Activity at 25 µM.

This note sets out measurements from publication PMC8621770, “New Compounds with Bioisosteric Replacement of Classic Choline Kinase Inhibitors Show Potent Antiplasmodial Activity” (Pharmaceutics, 2021).

Structures can show the parent of a compound that is named as a salt. Where two headings read alike, the source gives them in different places.

T1 sequence (Q8IM71 entry or part of it): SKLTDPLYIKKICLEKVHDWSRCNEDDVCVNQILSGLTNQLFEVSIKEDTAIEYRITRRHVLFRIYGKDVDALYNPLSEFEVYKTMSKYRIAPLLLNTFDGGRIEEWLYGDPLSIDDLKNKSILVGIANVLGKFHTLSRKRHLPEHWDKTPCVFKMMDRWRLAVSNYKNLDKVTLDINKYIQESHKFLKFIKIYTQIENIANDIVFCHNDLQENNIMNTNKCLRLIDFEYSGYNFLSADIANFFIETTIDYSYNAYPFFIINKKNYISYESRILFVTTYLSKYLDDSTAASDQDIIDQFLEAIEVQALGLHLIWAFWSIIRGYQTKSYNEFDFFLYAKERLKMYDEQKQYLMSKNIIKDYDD

Compound `[Br-].[Br-].c1cc2c(N3CCCCC3)nc[n+](Cc3ccc(CCCCc4ccc(C[n+]5cnc(N6CCCCC6)c6ccsc65)cc4)cc3)c2s1` returned a melting point of 282 to 284 °C.
Still for that read-out and setting: in the case of `c1cc2c(s1)c(N1CCCCCC1)cc[n+]2Cc1ccc(-c2ccc(C[n+]3ccc(N4CCCCCC4)c4sccc43)cc2)cc1` (as salt: bromide) [Fg-10, 1,1’-([1,1’-biphenyl]-4,4’-diylbis(methylene))bis(7-(azepan-1-yl)thieno[3,2-b]pyridin-4-ium) bromide] it was 220 to 222 °C.
Compound `[Br-].[Br-].c1cc2c(s1)c(N1CCCC1)nc[n+]2Cc1ccc(-c2ccc(C[n+]3cnc(N4CCCC4)c4sccc43)cc2)cc1` [Fa-21, 1,1’-([1,1’-biphenyl]-4,4’-diylbis(methylene))bis(4-(pyrrolidin-1-yl)thieno[3,2-d]pyrimidin-1-ium) bromide] registered a melting point of 312 to 315 °C. Besides, in the data set with P. falciparum strain 3D7, the “fold decrease in antimalarial activity with respect to the reference compounds BR-23 / BR-25” value was determined as 10 fold. Also, the IC50 with P. falciparum strain 3D7 (setting [1]) was determined as 13.7 nM.
As to `[Br-].[Br-].c1cc2c(s1)c(N1CCCCCC1)nc[n+]2Cc1ccc(CCc2ccc(C[n+]3cnc(N4CCCCCC4)c4sccc43)cc2)cc1` [Fa-23, 1,1’-((ethane-1,2-diylbis(4,1-phenylene))bis(methylene))bis(4-(azepan-1-yl)thieno[3,2-d]pyrimidin-1-ium) bromide], the melting point fell in the range of 321 to 323 °C. In addition, in the data set with P. falciparum strain 3D7 (setting [1]), the IC50 stood at 67.8 nM.
On to `c1cc2c(s1)c(N1CCCCC1)nc[n+]2Cc1ccc(-c2ccc(C[n+]3cnc(N4CCCCC4)c4sccc43)cc2)cc1` [Fa-24, 1,1’-([1,1’-biphenyl]-4,4’-diylbis(methylene))bis(4-(piperidin-1-yl)thieno[3,2-d]pyrimidin-1-ium) bromide], for which, in the data set on P. falciparum strain 3D7 (setting [1]), the IC50 turned out to be 57.8 nM. Also, the remaining activity at 25 µM on PfCK (setting [2]) was 57.1 ± 5.15%.
With `[Br-].[Br-].c1cc2c(s1)c(N1CCCCC1)nc[n+]2Cc1ccc(CCc2ccc(C[n+]3cnc(N4CCCCC4)c4sccc43)cc2)cc1` [Fa-25, 1,1’-((ethane-1,2-diylbis(4,1-phenylene))bis(methylene))bis(4-(piperidin-1-yl)thieno[3,2-d]pyrimidin-1-ium) bromide], the melting point fell in the range of 314 to 316 °C. Moreover, in the data set on P. falciparum strain 3D7 (setting [1]), the IC50 came out at 34.7 nM.
Regarding `[Br-].[Br-].c1cc2c(s1)c(N1CCCC1)cc[n+]2Cc1ccc(CCCCc2ccc(C[n+]3ccc(N4CCCC4)c4sccc43)cc2)cc1` [Ff-1, 4,4’-((butane-1,4-diylbis(4,1-phenylene))bis(methylene))bis(7-(pyrrolidin-1-yl)thieno[3,2-b]pyridin-4-ium) bromide], the “fold decrease in antimalarial activity with respect to the reference compounds BR-23 / BR-25” value with P. falciparum strain 3D7 is on record as 10 fold. The IC50 in the data set with P. falciparum strain 3D7 (setting [1]) came to 90.1 nM; against PfCK it was 10900 ± 1330 nM. Also, the remaining activity at 25 µM on PfCK (setting [2]) is 47 ± 3.53%.
The compound `[Br-].[Br-].c1cc2c(N3CCCC3)nc[n+](Cc3ccc(CCCCc4ccc(C[n+]5cnc(N6CCCC6)c6ccsc65)cc4)cc3)c2s1` [Ff-3, 1,1’-((butane-1,4-diylbis(4,1-phenylene))bis(methylene))bis(4-(pyrrolidin-1-yl)thieno[2,3-d]pyrimidin-1-ium) bromide] had a melting point of 288 to 290 °C. In addition, the “fold decrease in antimalarial activity with respect to the reference compounds BR-23 / BR-25” value in the data set with P. falciparum strain 3D7 stood at 10 fold. Moreover, the IC50 in the data set on P. falciparum strain 3D7 (setting [1]) is 38.8 nM.
Take `c1cc2c(s1)c(N1CCCCCC1)nc[n+]2Cc1ccc(OCCOc2ccc(C[n+]3cnc(N4CCCCCC4)c4sccc43)cc2)cc1` [Ff-34, 1,1′-(((ethane-1,2-diylbis(oxy))bis(4,1-phenylene))bis(methylene))bis(4-(azepan-1-yl)thieno[3,2-d]pyrimidin-1-ium) bromide]: the IC50 with P. falciparum strain 3D7 (setting [1]) was 87.9 nM. For the same compound, the remaining activity at 25 µM on PfCK (setting [2]) was found to be 52.2 ± 12.4%; on PfCK (read-out: residual enzyme activity), 52.2%.
Take `c1cc2c(s1)c(N1CCCCCC1)cc[n+]2Cc1ccc(-c2ccc(C[n+]3ccc(N4CCCCCC4)c4sccc43)cc2)cc1` [Fg-10, 1,1’-([1,1’-biphenyl]-4,4’-diylbis(methylene))bis(7-(azepan-1-yl)thieno[3,2-b]pyridin-4-ium) bromide]: the IC50 in the data set with P. falciparum strain 3D7 (setting [1]) amounted to 53 nM. Besides, the remaining activity at 25 µM at PfCK (setting [2]) came out at 44.7 ± 8.55%.
On to `c1cc2c(s1)c(N1CCCC1)cc[n+]2Cc1ccc(-c2ccc(C[n+]3ccc(N4CCCC4)c4sccc43)cn2)nc1` [Fg-12, 4,4’-([2,2’-bipypidine]-5,5’-diylbis(methylene))bis(7-(pyrrolidin-1-yl)thieno[3,2-b]pyridin-4-ium bromide)], for which, in the data set with P. falciparum strain 3D7, the IC50 amounted to 305 nM.
As to `c1cc2c(N3CCCCC3)nc[n+](Cc3ccc(-c4ccc(C[n+]5cnc(N6CCCCC6)c6ccsc65)cc4)cc3)c2s1` [Fg-30, 1,1’-([1,1’-biphenyl]-4,4’-diylbis(methylene))bis(4-(piperidin-1-yl)thieno[2,3-d]pyrimidin-1-ium) bromide], the IC50 in the data set on P. falciparum strain 3D7 (setting [1]) worked out at 27.9 nM. In addition, the remaining activity at 25 µM on PfCK (setting [2]) is 54.8 ± 7.2%.
With `CN(c1ccccc1)c1nc[n+](Cc2ccc(-c3ccc(C[n+]4cnc(N(C)c5ccccc5)c5sccc54)cc3)cc2)c2ccsc12.[Br-].[Br-]` [Fp-1, 1,1’-([1,1’-biphenyl]-4,4’-diylbis(methylene))bis(4-(methyl(phenyl)amino)thieno[3,2-d]pyrimidin-1-ium)bromide], the IC50 in the data set on P. falciparum strain 3D7 (setting [1]) came out at 142 nM. Moreover, in the data set on P. falciparum strain 3D7, the “fold decrease of antimalarial activity with respect to RSM932A” value is “up to 10 fold” and the “fold decrease in parasite lethality with respect to BR-31” value was 10 fold. This compound had an IC50 at PfCK of 7270 ± 230 nM. Also, the remaining activity at 25 µM at PfCK (setting [2]) is 12.9 ± 3.32%.
For `CN(c1ccc(Cl)cc1)c1nc[n+](Cc2ccc(-c3ccc(C[n+]4cnc(N(C)c5ccc(Cl)cc5)c5ccsc54)cc3)cc2)c2sccc12.[Br-].[Br-]` [Fp-8, 1,1’-([1,1’-biphenyl]-4,4’-diylbis(methylene))bis(4-((4-chlorophenyl)(methyl)amino)thieno[2,3-d]pyrimidin-1-ium) bromide], the IC50 in the data set on P. falciparum strain 3D7 (setting [1]) is 282 nM. In the data set with P. falciparum strain 3D7, the “fold decrease of antimalarial activity with respect to RSM932A” value is listed as “up to 10 fold” and the “fold decrease in parasite lethality with respect to BR-31” value was 10 fold. In addition, it took 4170 ± 480 nM to reach half-maximal inhibition against PfCK (IC50). The remaining activity at 25 µM on PfCK (setting [2]) was found to be 8.1 ± 5.8%.
